Assays:
[1] = Therapeutic index in infected mice (antimalaria activity compared with semi-chronic toxicity); assay type: in vivo; settings: mouse, in vivo, i.p. or s.c., twice a day for four days, ratio of activity over toxicity (LD50)
Procedure: In order to evaluate the therapeutic index of the different products, the activity of these products was tested in vivo and compared with […] toxicity in animals. This activity was measured using the test described by PETERS W. (Chemotherapy and Drug resistance in Malaria, 1970). A compound was administered for four consecutive days to mice previously infected with Plasmodium vinckei, petterei or chabaudi. The said compound was dissolved in a 0.9% NaCl solution. The preparations were thus administered intraperitoneally or subcutaneously in male Swiss mice infected by intravenous injection of Plasmodium petterei or Plasmodium chadaudi (10^6 infected cells). The compound was administered twice a day for four consecutive days, the first injection being performed two hours after the infestation and the second, 10 hours later. The parasitemia was determined on blood smears the day after the end of treatment. Toxicity was measured in vivo following the same schedule, the animals having received, under the same administration conditions as above, two injections per day for four days (semi-chronic toxicity). The results are expressed in lethal dose 50 (LD50), i.e. the dose causing death in 50% of the animals.
The results of these trials are summarized in Table I, below, and expressed as therapeutic index, or the ratio of activity over toxicity measured under the identical conditions described above.

[2] = system: Babesia bovis, Babesia canis; test: In vitro antibabesia activity, (3H) hypoxanthine incorporation; assay type: cell-based; settings: score from ED50 of (3H) hypoxanthine incorporation
Excerpt: The screening process for antimalaria activity, based on parasite incorporation of (^3 H) hypoxanthine was used to test the antimetabolic activity of such components against Babesia bovis, Babesia canis. A tight relationship was found between the rate of (^3 H) hypoxanthine incorporation using standard measurements and the percentage of parasitized cells determined by microscopy. […] The score was ++ for the same activity at a concentration of 0.01 to 0.1 micromoles and finally + for a concentration under or equal to 1 micromole.

Structure (SMILES) | selectivity ratio [1] | Antibabesia activity at 10 millimoles [2]
CCC[N+](C)(CC)CCCCCCCCCCCCCCCC[N+](C)(CC)CCC.[Br-].[Br-] (stereo not drawn) [EXAMPLE 3, N,N'-dimethyl-N,N'-diethyl-N,N'-dipropyl-1,16-hexadecanediaminium dibromide] | 15 | 
C[N+]1(CCCCCCCCCCCCCCCC[N+]2(C)CCOCC2)CCOCC1 [EXAMPLE 21, 1,1'-(1,16-hexadecanediyl)bis(1-methylmorphofinium) dibromide] | 25 | +++ (a 50% inhibition of (^3 H) hypoxanthine incorporation (ED50), these molecules having a concentration less than or equal to 0.01 micromoles)
CCC[N+](C)(CC)CCCCCCCCCCCCCCC[N+](C)(CC)CCC.[Br-].[Br-] (stereo not drawn) [EXAMPLE 2, N,N'-dimethyl-N,N'-diethyl-N,N'-dipropyl-1,15-pentadecanediaminium dibromide] | 42 | + (a concentration under or equal to 1 micromole)
CCC[N+](CCC)(CCO)CCCCCCCCCCCCCCCCCCCC[N+](CCC)(CCC)CCO.[Br-].[Br-] [EXAMPLE 30, N,N'-di(2-hydroxyethyl)-N,N,N',N'-tetrapropyl-1,20-eicosanediaminium dibromide] | 55 | +++ (a 50% inhibition of (^3 H) hypoxanthine incorporation (ED50), these molecules having a concentration less than or equal to 0.01 micromoles)
CC[N+](C)(CC)CCCCCCCCCCCCCCCCCC[N+](C)(CC)CC [EXAMPLE 14, N,N'-dimethyl-,N,N,N',N'-tetraethyl-1,18-octadecanediaminium dibromide] | 14 | +++ (a 50% inhibition of (^3 H) hypoxanthine incorporation (ED50), these molecules having a concentration less than or equal to 0.01 micromoles)
CCC[N+](C)(CC)CCCCCCCCCCCCCCCCCCCC[N+](C)(CC)CCC.[Br-].[Br-] (stereo not drawn) [EXAMPLE 6, N,N'-dimethyl-N,N'-diethyl-N,N'-dipropyl-1,20-eicosanediaminium dibromide] | 15 | ++ (the same activity at a concentration of 0.01 to 0.1 micromoles)
CCC[N+](CCC)(CCC)CCCCCCCCCCCCCCCCCCCCCCCC[N+](CCC)(CCC)CCC.[Br-].[Br-] [EXAMPLE 11, N,N,N,N',N',N'-hexapropyl-1,24-tetracosanediaminium dibromide] | 28 | + (a concentration under or equal to 1 micromole)
CCC[N+](CCC)(CCC)CCCCCCCCCCCCCC[N+](CCC)(CCC)CCC.[Br-].[Br-] [EXAMPLE 8, N,N,N,N',N',N'-hexapropyl-1,14-tetradecanediaminium dibromide] | 20 | + (a concentration under or equal to 1 micromole)
CCCCCCCCCCCC[N+](C)(C)CCCCCCCCCCCCCCCCCC[N+](C)(C)CCCCCCCCCCCC [EXAMPLE 23] | 35 | + (a concentration under or equal to 1 micromole)
CCC[N+](C)(CC)CCCCCCCCCCCCCCCCC[N+](C)(CC)CCC.[Br-].[Br-] (stereo not drawn) [EXAMPLE 4, N,N'-dimethyl-N,N'-diethyl-N,N'-dipropyl-1,17-heptadecanediaminium dibromide] | 17 | ++ (the same activity at a concentration of 0.01 to 0.1 micromoles)
C[N+]1(CCCCCCCCCCCCCCCCCCCCCC[N+]2(C)CCCC2CO)CCCC1CO (stereo not drawn) [EXAMPLE 19, 1,1'-(1,22-docosanediyl)bis(2-hydroxymethl-1-methylpyrrolidium) dibromide] | 40 | + (a concentration under or equal to 1 micromole)
C#CC[N+](C)(C)CCCCCCCCCCCCCC[N+](C)(C)CC#C.[Br-].[Br-] [EXAMPLE 24, N,N'-di(2-propynyl)-N,N,N',N'-tetramethyl-1,14-tetradecandiaminium dibromide] | 12 | ++ (the same activity at a concentration of 0.01 to 0.1 micromoles)
CCC[N+](CCC)(CCO)CCCCCCCCCCCCCCCC[N+](CCC)(CCC)CCO.[Br-].[Br-] [EXAMPLE 29, N,N'-di-(2-hydroxyethyl)-N,N,N',N'-tetrapropyl-1,16 hexadecane diaminium dibromide] | 12 | ++ (the same activity at a concentration of 0.01 to 0.1 micromoles)
CCC[N+](C)(CC)CCCCCCCCCCCCCCCCCCCCCC[N+](C)(CC)CCC (stereo not drawn) [EXAMPLE 7, N,N'-dimethyl-N,N'-diethyl-N N'-dipropyl-1,22-cosanediaminium dibromide] | 35 | ++ (the same activity at a concentration of 0.01 to 0.1 micromoles)
CCC[N+](C)(CC)CCCCCCCCCCCCCC[N+](C)(CC)CCC (stereo not drawn) [EXAMPLE 1, N,N'-dimethyl-N,N'-diethyl-N,N'-dipropyl-1,14 tetradecanediaminium, dibromide] | 50 | ++ (the same activity at a concentration of 0.01 to 0.1 micromoles)
CCC[N+](C)(CC)CCCCCCCCCCCCCCCCCC[N+](C)(CC)CCC.[Br-].[Br-] (stereo not drawn) [EXAMPLE 5, N,N'-dimethyl-N,N'-diethyl-N,N'-dipropyl-1,18-octadecanediaminium dibromide] | 12 | +++ (a 50% inhibition of (^3 H) hypoxanthine incorporation (ED50), these molecules having a concentration less than or equal to 0.01 micromoles)
C[N+]1(CCCCCCCCCCCCCC[N+]2(C)CCCC2)CCCC1 [EXAMPLE 16, 1,1'-(1,14-tetradecanediyl)bis(1-methylpyrrolidium) dibromide] | 8 | +++ (a 50% inhibition of (^3 H) hypoxanthine incorporation (ED50), these molecules having a concentration less than or equal to 0.01 micromoles)
CCC[N+](CCC)(CCC)CCCCCCCCCCCCCCCCCCCC[N+](CCC)(CCC)CCC.[Br-].[Br-] [EXAMPLE 10, N,N,N,N', N',N'-hexapropyl-1,20-eicosanediaminium dibromide] | 14 | + (a concentration under or equal to 1 micromole)
CCC[N+](CCC)(CCO)CCCCCCCCCCCCCC[N+](CCC)(CCC)CCO.[Br-].[Br-] [EXAMPLE 27, N,N'-di(2-hydroxyethyl)-N,N,N',N'-tetrapropyl-1,14-tetradecanediaminium dibromide] | 15 | ++ (the same activity at a concentration of 0.01 to 0.1 micromoles)
CCC[N+](CCC)(CCCCCCCCCCCCCC[N+](CCC)(CCC)CCOCC)CCOCC.[Br-].[Br-] [EXAMPLE 28, N,N'-di(2-ethoxyethyl)-N,N,N',N'-tetrapropyl-1,14-tetradecanediaminium dibromide] | 40 | +++ (a 50% inhibition of (^3 H) hypoxanthine incorporation (ED50), these molecules having a concentration less than or equal to 0.01 micromoles)
CC[N+](C)(CC)CCCCCCCCCCCCCCCCCCCCC[N+](C)(CC)CC [EXAMPLE 15, N,N'-dimethyl-,N,N,N',N'-tetraethyl-1,21-heneicosanediaminium dibromide] | 12 | +++ (a 50% inhibition of (^3 H) hypoxanthine incorporation (ED50), these molecules having a concentration less than or equal to 0.01 micromoles)
CCCCCCCCCCCC[N+](C)(C)CCCCCCCCCCCCCCCC[N+](C)(C)CCCCCCCCCCCC.[Br-].[Br-] [EXAMPLE 22, N,N'-didodecyl-N,N,N',N'-tetramethyl-1,16-hexadecanediaminium dibromide] | 20 | ++ (the same activity at a concentration of 0.01 to 0.1 micromoles)
C[N+]1(CCCCCCCCCCCCCCCC[N+]2(C)CCCC2)CCCC1 [EXAMPLE 17, 1,1'-(1,16-hexadecanediyl)bis(1-methylpyrrolidium) dibromide] | 7 | +++ (a 50% inhibition of (^3 H) hypoxanthine incorporation (ED50), these molecules having a concentration less than or equal to 0.01 micromoles)
C=CC[N+](C)(C)CCCCCCCCCCCCCC[N+](C)(C)CC=C.[Br-].[Br-] [EXAMPLE 25, N,N'-di(2-propenyl)-N,N,N',N'-tetramethyl-1,14-tetradecanediaminium dibromide] | 15 | +++ (a 50% inhibition of (^3 H) hypoxanthine incorporation (ED50), these molecules having a concentration less than or equal to 0.01 micromoles)
C#CCC[N+](C)(C)CCCCCCCCCCCCCC[N+](C)(C)CCC#C.[Br-].[Br-] [EXAMPLE 26, N,N'-di(3-butynyl)-N,N,N',N'-tetramethyl-1,14-tetradecanediaminium dibromide] | 45 | ++ (the same activity at a concentration of 0.01 to 0.1 micromoles)
CC[N+](C)(CC)CCCCCCCCCCCCCCCC[N+](C)(CC)CC [EXAMPLE 13, N,N'-dimethyl-,N,N,N',N'-tetraethyl-1,16-hexadecanediaminium dibromide] | 6 | +++ (a 50% inhibition of (^3 H) hypoxanthine incorporation (ED50), these molecules having a concentration less than or equal to 0.01 micromoles)
